Data from patent US20240287046A1, “COMPOUNDS AND RADIOLIGANDS FOR TARGETING NEUROTENSIN RECEPTOR AND USES THEREOF” (Full-Life Technologies HK Limited, priority 2022, published 2024).
Read-outs that look alike come from different tables or passages of the source.

What was measured:
NTR1 = NTR1 (Homo sapiens (Human), UniProt P30989); conditions: cited from earlier work
human NTSR-1 = human NTSR-1 (Homo sapiens (Human), UniProt P30989); assay: radioligand competitive binding assay using ^177Lu labeled C-1 as reference radioligand; conditions: for IC50: Nonlin fit, single assay, HT-29 cells
Procedure, shortened: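 HT-29 cells expressing human NTSR-1 incubated with ¹⁷⁷Lu-C-1 (0.55 μCi/well) and test compound in RPMI-1640 + 0.25% BSA, 1 h at 37 °C (n=3). Unbound label removed by filtration, cell-bound radioactivity gamma-counted; IC50 from nonlinear regression of displacement.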

human NTSR-1, sequence (P30989 whole entry): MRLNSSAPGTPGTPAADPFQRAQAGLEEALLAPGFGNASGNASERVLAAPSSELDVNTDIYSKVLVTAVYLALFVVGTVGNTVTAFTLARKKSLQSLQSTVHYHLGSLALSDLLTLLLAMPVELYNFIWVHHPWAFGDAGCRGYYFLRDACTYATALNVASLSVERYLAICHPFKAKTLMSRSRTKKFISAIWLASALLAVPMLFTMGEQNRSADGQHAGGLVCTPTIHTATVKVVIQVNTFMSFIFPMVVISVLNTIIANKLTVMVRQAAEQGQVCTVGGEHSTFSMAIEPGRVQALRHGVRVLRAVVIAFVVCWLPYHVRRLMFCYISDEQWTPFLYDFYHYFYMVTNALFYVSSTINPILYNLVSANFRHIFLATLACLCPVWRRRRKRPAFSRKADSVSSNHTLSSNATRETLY
NTR1, sequence (P30989 whole entry, species assumed): as the sequence (P30989 whole entry) above

COc1cccc(OC)c1-c1cc(C(=O)NC2(C(=O)O)C3CC4CC(C3)CC2C4)nn1-c1ccc(C(=O)N(C)CCCN(C)C)cc1C(C)C (stereo not shown) [Compound C-3, reference compound]
binding affinity to NTR1 as an antagonist (NTR1): high binding affinity | Relative Binding Affinity (human NTSR-1; Mean IC50 of C-1/Mean IC50 of the test compound): 13.7 | IC50 (human NTSR-1; read-out: IC50 (nM) Mean): 2.05 nM | IC50 (human NTSR-1; read-out: LogIC50 Mean (converted)): 2.05 nM
